Measured values taken from patent US8067424B2, “Selective inhibitors for cyclin-dependent kinases” (Emory University, priority 2007, dated 2011).
Read-outs that look alike come from different tables or passages of the source.

What was measured:
Type in all cases: biochemical
PAK4 = PAK4 (Homo sapiens, UniProt O96013); experiment: Kinase screen: PAK4 assay
Procedure: (§1) Generally, the same procedure was used for all assays. Since the total assay volume was 25.5 microliters, 0.5 microliters of inhibitors at 51× assay concentration were added to the plates before any other addition.
(§2) The basic procedure was to add 0.5 microliters inhibitor/control in DMSO to plate. Fifteen microliters of enzyme/substrate/buffer mix were added and incubated for 5 min. Ten microliters MgATP at the relevant concentration were added and incubated for 30 min. The assay was stopped by adding 5 microliters of 3% orthophosphoric acid. The assay was transferred to a p81 filter plate and read in a scintillation counter of 30 sec/well. Note that this assay procedure was not followed for MKK1, which instead involved a two-step assay, and PKC alpha, which required the addition of lipid vesicles.
PAK4 assay: PAK4 (5-20 mU diluted in 50 mM Tris pH 7.5, 0.1 mM EGTA, 0.1% b-mercaptoethanol, 1 mg/ml BSA) was assayed against a substrate peptide ([…]) (SEQ ID NO: 30) in a final volume of 25.5 μl containing 50 mM Tris pH 7.5, 0.05% b-mercaptoethanol, 300 μM substrate peptide, 10 mM magnesium acetate and 0.005 mM [33P-g-ATP] (50-1000 cpm/pmole) and incubated for 30 min at room temperature. Assays were stopped by addition of 5 μl of 0.5 M (3%) orthophosphoric acid and then harvested onto P81 Unifilter plates with a wash buffer of 50 mM orthophosphoric acid.

RSK2 = RSK2 (Homo sapiens, UniProt P51812); experiment: Kinase screen: MAPKAP-K1b/RSK2 assay
Chain of RSK2 (P51812 whole entry, species assumed): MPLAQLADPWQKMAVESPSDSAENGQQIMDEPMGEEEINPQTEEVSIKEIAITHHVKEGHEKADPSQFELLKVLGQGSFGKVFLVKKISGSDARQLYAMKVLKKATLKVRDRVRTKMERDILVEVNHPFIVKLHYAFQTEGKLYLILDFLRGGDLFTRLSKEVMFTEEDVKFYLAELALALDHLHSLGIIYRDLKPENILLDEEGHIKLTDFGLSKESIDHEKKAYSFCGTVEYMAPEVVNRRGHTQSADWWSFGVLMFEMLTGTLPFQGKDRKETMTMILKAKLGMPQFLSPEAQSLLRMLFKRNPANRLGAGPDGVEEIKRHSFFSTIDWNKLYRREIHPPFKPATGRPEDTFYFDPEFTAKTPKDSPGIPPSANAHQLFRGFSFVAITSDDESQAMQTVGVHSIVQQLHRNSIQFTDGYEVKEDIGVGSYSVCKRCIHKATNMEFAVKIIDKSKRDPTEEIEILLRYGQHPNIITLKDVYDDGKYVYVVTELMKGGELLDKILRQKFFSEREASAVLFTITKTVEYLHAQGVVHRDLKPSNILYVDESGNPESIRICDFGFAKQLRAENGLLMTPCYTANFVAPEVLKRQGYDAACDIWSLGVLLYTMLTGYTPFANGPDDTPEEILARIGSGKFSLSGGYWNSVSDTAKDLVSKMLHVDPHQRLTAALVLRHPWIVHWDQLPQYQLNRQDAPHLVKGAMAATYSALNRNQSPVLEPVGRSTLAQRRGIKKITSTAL
Procedure: as §1, §2
MAPKAP-K1b/RSK2 assay: MAPKAP-K1b (5-20 mU diluted in 20 mM MOPS pH 7.5, 1 mM EDTA, 0.01% Brij35, 5% glycerol, 0.1% b-mercaptoethanol, 1 mg/ml BSA) was assayed against substrate peptide ([…]) (SEQ ID NO: 3) in a final volume of […] containing 50 mM Na-b-glycerophosphate (pH 7.5), 0.5 mM EDTA, 30 μM substrate peptide, 10 mM magnesium acetate and 0.05 mM [33P-g-ATP] (50-1000 cpm/pmole) and incubated for 30 min at room temperature. Assays were stopped by addition of 5 μl of 0.5 M (3%) orthophosphoric acid and then harvested onto P81 Unifilter plates with a wash buffer of 50 mM orthophosphoric acid.

MKK1 = MKK1 (Homo sapiens, UniProt Q02750); experiment: Kinase screen: MKK1 assay
Chain of MKK1 (Q02750 whole entry, species assumed): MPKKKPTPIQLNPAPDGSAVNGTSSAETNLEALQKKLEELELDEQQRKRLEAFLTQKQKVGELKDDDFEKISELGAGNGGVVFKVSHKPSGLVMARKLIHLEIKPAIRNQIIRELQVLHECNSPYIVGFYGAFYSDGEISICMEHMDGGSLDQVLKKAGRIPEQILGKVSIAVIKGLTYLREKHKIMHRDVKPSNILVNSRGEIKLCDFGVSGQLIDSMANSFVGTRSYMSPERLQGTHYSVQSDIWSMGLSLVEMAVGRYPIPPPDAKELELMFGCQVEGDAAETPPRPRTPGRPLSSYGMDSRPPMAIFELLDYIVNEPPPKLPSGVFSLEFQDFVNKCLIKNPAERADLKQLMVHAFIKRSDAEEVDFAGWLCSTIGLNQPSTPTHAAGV
Procedure: as §1, §2
After incubating at room temperature for 30 min, 5 μl from the first reaction was pipetted into 20 μl of the second reaction mix containing (final concentration) 25 mM Tris pH 7.5, 0.1 mM EGTA, 0.1 mM Na3VO4, 0.66 mg/ml myelin basic protein (MBP), 10 mM magnesium acetate and 0.05 mM [33P-g-ATP] (500-1000 cpm/pmole) and incubated for 30 min at room temperature. Assays were stopped by addition of 5 μl of 0.5 M (3%) orthophosphoric acid and then harvested onto P81 Unifilter plates with a wash buffer of 50 mM orthophosphoric acid.

EPH-B3 = target: T1, EPH-B3 (Homo sapiens, UniProt P54753); experiment: Kinase screen: EPH-B3 assay; settings: 10 micromolar compound; for remaining activity at 10 µM: read-out: mean activity remaining (as a percentage of the original activity), EPH-B3
T1 sequence (P54753 34-998): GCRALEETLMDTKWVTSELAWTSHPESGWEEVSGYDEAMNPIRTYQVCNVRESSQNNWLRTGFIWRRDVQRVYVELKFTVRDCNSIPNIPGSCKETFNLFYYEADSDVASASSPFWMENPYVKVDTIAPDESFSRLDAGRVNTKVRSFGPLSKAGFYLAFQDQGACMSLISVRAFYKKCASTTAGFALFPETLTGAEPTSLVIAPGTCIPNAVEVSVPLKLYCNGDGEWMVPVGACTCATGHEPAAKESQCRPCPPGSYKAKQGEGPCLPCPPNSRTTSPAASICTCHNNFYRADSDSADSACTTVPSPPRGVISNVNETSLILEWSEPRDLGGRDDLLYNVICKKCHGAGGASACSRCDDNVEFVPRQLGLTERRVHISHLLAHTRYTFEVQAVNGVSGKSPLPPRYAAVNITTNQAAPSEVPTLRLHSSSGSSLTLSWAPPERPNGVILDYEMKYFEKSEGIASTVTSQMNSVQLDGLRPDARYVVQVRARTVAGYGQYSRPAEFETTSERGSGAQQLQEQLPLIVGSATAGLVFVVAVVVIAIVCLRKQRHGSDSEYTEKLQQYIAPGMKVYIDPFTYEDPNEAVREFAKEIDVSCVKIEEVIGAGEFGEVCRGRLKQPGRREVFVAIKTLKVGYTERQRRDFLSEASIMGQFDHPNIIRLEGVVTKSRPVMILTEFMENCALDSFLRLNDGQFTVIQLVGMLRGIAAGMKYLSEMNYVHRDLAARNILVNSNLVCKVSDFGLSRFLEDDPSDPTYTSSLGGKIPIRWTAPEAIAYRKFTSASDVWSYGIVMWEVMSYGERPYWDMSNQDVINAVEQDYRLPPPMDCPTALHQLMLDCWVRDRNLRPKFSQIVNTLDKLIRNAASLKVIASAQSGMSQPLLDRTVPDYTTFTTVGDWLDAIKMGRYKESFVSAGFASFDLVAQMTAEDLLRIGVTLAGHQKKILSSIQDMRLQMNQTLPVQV
Procedure: as §1, §2
EPH-B3 assay: EPH-B3 (5-20 mU diluted in 50 mM Tris pH 7.5, 0.1 mM EGTA, 1 mg/ml BSA) was assayed against a substrate peptide (Poly Glut Tyr) in a final volume of 25.5 μl containing 50 mM Tris pH 7.5, 1 mg/ml substrate peptide, 10 mM magnesium acetate and 0.005 mM [33P-g-ATP] (50-1000 cpm/pmole) and incubated for 30 min at room temperature. Assays were stopped by addition of 5 μl of 0.5 M (3%) orthophosphoric acid and then harvested onto P81 Unifilter plates with a wash buffer of 50 mM orthophosphoric acid.

[1] = 10 micromolar compound, read-out: mean activity remaining (as a percentage of the original activity), PAK4
[2] = 10 micromolar compound, read-out: mean activity remaining (as a percentage of the original activity), RSK2
[3] = 10 micromolar compound, read-out: mean activity remaining (as a percentage of the original activity), MKK1

Chain of PAK4 (O96013 whole entry, species assumed): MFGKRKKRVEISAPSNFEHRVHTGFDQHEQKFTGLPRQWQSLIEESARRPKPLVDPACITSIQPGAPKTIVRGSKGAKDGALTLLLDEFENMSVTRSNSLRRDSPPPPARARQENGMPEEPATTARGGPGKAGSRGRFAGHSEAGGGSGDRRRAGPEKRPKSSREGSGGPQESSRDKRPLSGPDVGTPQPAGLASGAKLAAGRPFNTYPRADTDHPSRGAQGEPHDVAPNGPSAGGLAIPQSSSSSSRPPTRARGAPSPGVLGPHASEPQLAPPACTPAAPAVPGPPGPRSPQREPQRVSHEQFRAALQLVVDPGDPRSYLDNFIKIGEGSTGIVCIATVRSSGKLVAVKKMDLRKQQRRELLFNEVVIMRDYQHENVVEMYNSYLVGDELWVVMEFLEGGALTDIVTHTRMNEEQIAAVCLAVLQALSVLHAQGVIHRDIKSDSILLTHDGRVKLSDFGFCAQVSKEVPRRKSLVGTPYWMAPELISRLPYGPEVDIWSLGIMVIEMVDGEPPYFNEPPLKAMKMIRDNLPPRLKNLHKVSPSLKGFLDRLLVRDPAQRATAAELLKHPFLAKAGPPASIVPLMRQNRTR

Structure (SMILES) | remaining activity at 10 µM (PAK4; [1]) [%] | remaining activity at 10 µM (RSK2; [2]) [%] | remaining activity at 10 µM (MKK1; [3]) [%] | remaining activity at 10 µM (EPH-B3) [%] | other results
CC(C)c1cnn2c(NCc3ccccc3F)cc(NCCCCCN)nc12 [ICEC-0232] | – | – | – | – | mean activity remaining (as a percentage of the original activity), PAK4 (PAK4; 10 micromolar compound): 58%; mean activity remaining (as a percentage of the original activity), RSK2 (RSK2; 10 micromolar compound): 19%; mean activity remaining (as a percentage of the original activity), MKK1 (MKK1; 10 micromolar compound): 83%; mean activity remaining (as a percentage of the original activity), EPH-B3 (EPH-B3): 88%
CC(C)c1cnn2c(NCc3ccccc3)cc(NCCCCCCCN)nc12 [BS-181] | – | – | – | – | remaining activity at 10 µM (PAK4; PAK4, 10 μM, read-out: Mean Remaining Enzyme Activity (%)): 75%; remaining activity at 10 µM (RSK2; RSK2, 10 μM, read-out: Mean Remaining Enzyme Activity (%)): 55%; remaining activity at 10 µM (MKK1; MKK1, 10 μM, read-out: Mean Remaining Enzyme Activity (%)): 96%
CC[C@H](CO)Nc1cc(NCc2ccccc2)n2ncc(C(C)C)c2n1 [ICEC0067] | 75 | 76 | 44 | 79 | –
C=C[C@H](CO)Nc1cc(NCc2ccccc2)n2ncc(C(C)C)c2n1 [ICEC0065] | 82 | 84 | 107 | 83 | –
CC(C)c1cnn2c(NCc3ccccc3)cc(N[C@@H](CO)[C@H](O)CO)nc12 [ICEC0318, (3S)-3-(7-(Benzylamino)-3-isopropylpyrazolo[1,5-a]pyrimidin-5-ylamino)butane-1,2,4-triol] | 55 | 90 | 65 | 72 | –
